Results from US7220769B2, “Azolylbenzamides and analogues and their use for treating osteoporosis” (Nikem Research S.R.L., priority 1999, dated 2007).

Tests used:
osteoclast proton pump = details: membrane vesicles from avian osteoclasts, ATP-driven acidification, acridine orange quench; cited from earlier work
osteoclast cultures = details: cited from earlier work

Compound	melting point [°C]	also measured
CN1C(C)(C)CC(NC(=O)c2ccc(-c3nc4cc(Cl)c(Cl)cc4[nH]3)c(O)c2)CC1(C)C [Example 3, 4-(5,6-Dichlorobenzimidazol-2-yl)-N-(1,2,2,6,6-pentamethylpiperidin-4-yl)-3-hydroxybenzamide]	> 250	
CCOc1cc(C(=O)NC2CC(C)(C)NC(C)(C)C2)ccc1-c1nc2cc(Cl)c(Cl)cc2[nH]1 [Example 6, 4-(5,6-Dichlorobenzimidazol-2-yl)-N-(2,2,6,6-tetramethylpiperidin-4-yl)-3-ethoxybenzamide]	> 280	
CN1C(C)(C)CC(NC(=O)c2ccc(-c3nc4cc(Cl)ccc4[nH]3)cc2)CC1(C)C [Example 2, 4-(5-Chlorobenzimidazol-2-yl)-N-(1,2,2,6,6-pentamethylpiperidin-4-yl)-benzamide]	> 250	
COc1cc(C(=O)NC2CC(C)(C)N(C)C(C)(C)C2)ccc1-c1nc2cc(Cl)c(Cl)cc2[nH]1 [Example 4, 4-(5,6-Dichlorobenzimidazol-2-yl)-N-(1,2,2,6,6-pentamethylpiperidin-4-yl)-3-methoxybenzamide]	285 to 286	
CCOc1cc(C(=O)NCCCO)ccc1-c1nc2cc(Cl)c(Cl)cc2[nH]1 [Example 16, 4-(5,6-Dichlorobenzimidazol-2-yl)-N-(3-hydroxypropyl)-3-ethoxybenzamide]	148 to 150	
COc1cc(C(=O)NC2CC(C)(C)NC(C)(C)C2)ccc1-c1nc2cc(Cl)c(Cl)cc2[nH]1 [Example 10, 4-(5,6-Dichlorobenzimidazol-2-yl)-N-(2,2,6,6-tetramethylpiperidin-4-yl)-3-methoxybenzamide]	233 to 235	
[Na+].[Na+].[Na+].[O]=[V]([O-])([O-])[O-] [sodium orthovanadate]		proton transport inhibited / not inhibited (osteoclast proton pump): not inhibited
Cc1nc2c(OCc3ccccc3)cccn2c1CC#N [SCH 28080]		proton transport inhibited / not inhibited (osteoclast proton pump): not inhibited
COc1cc(C(=O)NCCCN2CCN(c3ncccn3)CC2)ccc1-c1nc2cc(Cl)c(Cl)cc2[nH]1 [Example 7, 4-(5,6-Dichlorobenzimidazol-2-yl)-N-[3-[4-(2-pyrimidinyl)piperazin-1-yl]propyl]-3-methoxybenzamide]	255 to 258	
COc1cc(-c2nc3cc(Cl)c(Cl)cc3[nH]2)c(OC)cc1C(=O)NC1CC(C)(C)N(C)C(C)(C)C1 [Example 17, 4-(5,6-Dichlorobenzimidazol-2-yl)-N-(1,2,2,6,6-pentamethylpiperidin-4-yl)-2,5-dimethoxybenzamide]	> 250	
O=C(NCCCN1CCN(c2ncccn2)CC1)c1ccc(-c2nc3cc(Cl)c(Cl)cc3[nH]2)c(O)c1 [Example 8, 4-(5,6-Dichlorobenzimidazol-2-yl)-N-[3-[4-(2-pyrimidinyl)piperazin-1-yl]propyl]-3-hydroxybenzamide]	258 to 260	
Cc1cc(C(=O)NC2CC(C)(C)NC(C)(C)C2)ccc1-c1nc2cc(Cl)c(Cl)cc2[nH]1 [Example 13, 4-(5,6-Dichlorobenzimidazol-2-yl)-N-(2,2,6,6-tetramethylpiperidin-4-yl)-3-methylbenzamide]	> 250	
C[C@@H]1O[C@@H](O[C@H]2C[C@@H](O)[C@]3(CO)[C@H]4[C@H](O)C[C@]5(C)[C@@H](C6=CC(=O)OC6)CC[C@]5(O)[C@@H]4CC[C@]3(O)C2)[C@H](O)[C@H](O)[C@H]1O [ouabain]		proton transport inhibited / not inhibited (osteoclast proton pump): not inhibited
COc1cc(-c2nc3cc(Cl)c(Cl)cc3[nH]2)c(OC)cc1C(=O)NC1CC(C)(C)NC(C)(C)C1 [Example 18, 4-(5,6-Dichlorobenzimidazol-2-yl)-N-(2,2,6,6-tetramethylpiperidin-4-yl)-2,5-dimethoxybenzamide]	> 250	
CCOc1cc(C(=O)Nc2cccnc2)ccc1-c1nc2cc(Cl)c(Cl)cc2[nH]1 [Example 15, 4-(5,6-Dichlorobenzimidazol-2-yl)-N-(3-pyridyl)-3-ethoxybenzamide]	> 260	
CCOc1cc(C(=O)NC2CC(C)(C)NC(C)(C)C2)ccc1-c1nc2ccc(Cl)cc2[nH]1 [Example 19, 4-(5-Chlorobenzimidazol-2-yl)-N-(2,2,6,6-tetramethylpiperidin-4-yl)-3-ethoxybenzamide]	222 to 225	
CN1C(C)(C)CC(NC(=O)c2ccc(-c3nc4cc(Cl)c(Cl)cc4[nH]3)cc2)CC1(C)C [Example 1, 4-(5,6-Dichlorobenzimidazol-2-yl)-N-(1,2,2,6,6-pentamethylpiperidin-4-yl)benzamide]	> 280	
COc1cc(C(=O)N(C)C2CC(C)(C)NC(C)(C)C2)ccc1-c1nc2cc(Cl)c(Cl)cc2[nH]1 [Example 11, 4-(5,6-Dichlorobenzimidazol-2-yl)-N-(2,2,6,6-tetramethylpiperidin-4-yl)-N-methyl-3-methoxybenzamide]	240 to 242	
CO/C1=C\C(C)=C\[C@@H](C)[C@@H](O)[C@@H](C)C/C(C)=C/C=C/[C@H](OC)[C@@H]([C@@H](C)[C@@H](O)[C@H](C)[C@@]2(O)C[C@@H](O)[C@H](C)[C@@H](C(C)C)O2)OC1=O [bafilomycin A1]		proton transport inhibited / not inhibited (osteoclast proton pump): inhibited; inhibit bone resorption (osteoclast cultures): able to inhibit bone resorption
CCN1C(=O)C=CC1=O [N-ethylmaleimide]		proton transport inhibited / not inhibited (osteoclast proton pump): inhibited
COc1cc(C(=O)NC2CC(C)(C)N(C)C(C)(C)C2)ccc1-c1nc2cc(Cl)c(Cl)cc2n1C [Example 5, 4-(5,6-Dichloro-1-methylbenzimidazol-2-yl)-N-(1,2,2,6,6-pentamethylpiperidin-4-yl)-3-methoxybenzamide]	178 to 180	
